Key:
Format in all cases: in vivo
[1] = tested on: diamondback moth (Plutella xylostella); experiment: Insecticidal effect on diamondback moth (Test Example 1); conditions: diamondback moth; mortality judged by criterion of Test Example 1
Outline: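 Read-out was mortality from hatched-insect counts taken 6 days after the egg-bearing cabbage seedling was immersed, graded by set criteria. Seedlings were air-dried and kept at 25° C after treatment. Groups of 10 insects, in triplicate.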

[2] = tested on: rice leafroller (Cnaphalocrocis medinalis); experiment: Insecticidal effect on rice leafroller (Test Example 3); conditions: rice leafroller third-instar larvae; rice lamina immersed, 500 ppm; four days after inoculation; 25° C., humidity 70%
Outline: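 Groups of 10 third-instar larvae, in triplicate, are placed on air-dried lamina resting on wet filter paper. Incubation runs four days at 25° C with 70% humidity before survivors and dead are tallied.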

[3] = tested on: common cutworm (Spodoptera Litura); experiment: Insecticidal effect on common cutworm (Test Example 2); conditions: common cutworm second-instar larvae; cabbage leaf immersed, 500 ppm; eight days after inoculation; 25° C.
Outline: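 2nd-instar larvae on air-dried treatment, closed dish, 25° C; dead/alive counted at day 8. Mortality calculated, graded by criterion. 3 × 10 insects.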

Row | SMILES | Insecticidal effect, Test Example 1 [1] | Insecticidal effect, Test Example 3 [2] | Insecticidal effect, Test Example 2 [3]
1 | CCc1cc(OC(F)(F)F)ccc1NC(=O)c1cccc(I)c1C(=O)NC(C)(C)C [compound 1211] | A (100) | A (100) | A (100)
2 | CCc1cc(OC(F)(F)F)ccc1NC(=O)c1cccc(I)c1C(=O)N(CC)CC [compound 1212] | A (100) | A (100) | A (100)
3 | Cc1cc(OC(F)(F)F)ccc1NC(=O)c1ccc(Cl)c(Cl)c1C(=O)NC(C)C [compound 1221] | A (100) | A (100) | A (100)
4 | Cc1cc(C(F)(F)C(F)(F)F)ccc1NC(=O)c1ccc(Cl)c(Cl)c1C(=O)NC(C)C [compound 1222, 3,4-dichloro-N^1-(4-pentafluoroethyl-2-methylphenyl)-N^2-isopropylphthalic acid diamide] | A (100) | A (100) | A (100)
5 | Cc1cc(C(F)(C(F)(F)F)C(F)(F)F)ccc1NC(=O)c1ccc(Cl)c(Cl)c1C(=O)NC(C)C [compound 1223] | A (100) | A (100) | A (100)
6 | Cc1cc(OC(F)(F)F)ccc1NC(=O)c1ccc(F)c(Cl)c1C(=O)NC(C)C [compound 1227] | A (100) | A (100) | A (100)
7 | Cc1cc(C(F)(F)C(F)(F)F)ccc1NC(=O)c1ccc(F)c(Cl)c1C(=O)NC(C)C [compound 1228] | A (100) | A (100) | A (100)
8 | Cc1cc(C(F)(C(F)(F)F)C(F)(F)F)ccc1NC(=O)c1ccc(F)c(Cl)c1C(=O)NC(C)C [compound 1229] | A (100) | A (100) | A (100)
9 | Cc1cc(OC(F)(F)F)ccc1NC(=O)c1cccc(C(F)(F)F)c1C(=O)NC(C)(C)C [compound 1230] | A (100) | A (100) | A (100)
10 | Cc1cc(C(F)(F)C(F)(F)F)ccc1NC(=O)c1cccc(C(F)(F)F)c1C(=O)NC(C)(C)C [compound 1231] | A (100) | A (100) | A (100)
11 | Cc1cc(C(F)(C(F)(F)F)C(F)(F)F)ccc1NC(=O)c1cccc(C(F)(F)F)c1C(=O)NC(C)(C)C [compound 1232] | A (100) | A (100) | A (100)
12 | Cc1cc(OC(F)(F)F)ccc1NC(=O)c1ccc(I)cc1C(=O)NC(C)C [compound 1246] | A (100) | A (100) | A (100)
13 | Cc1cc(OC(F)(F)C(F)F)ccc1NC(=O)c1ccc(I)cc1C(=O)NC(C)C [compound 1248] | A (100) | A (100) | A (100)
14 | Cc1cc(C(F)(C(F)(F)F)C(F)(F)F)ccc1NC(=O)c1ccc(I)cc1C(=O)NC(C)C [compound 1250] | A (100) | A (100) | A (100)
15 | Cc1cc(C(F)(C(F)(F)F)C(F)(F)F)ccc1NC(=O)c1cc(I)ccc1C(=O)NC(C)C [compound 1251] | A (100) | A (100) | A (100)
16 | Cc1cc(C(F)(C(F)(F)F)C(F)(F)F)ccc1NC(=O)c1ccc(F)c(Cl)c1C(=O)NC(C)(C)C [compound 1263] | A (100) | A (100) | A (100)
17 | CCN(CC)C(=O)c1c(C(=O)Nc2ccc(C(F)(C(F)(F)F)C(F)(F)F)cc2C)ccc(F)c1Cl [compound 1264] | A (100) | A (100) | A (100)
18 | Cc1cc(C(F)(F)C(F)(F)F)ccc1NC(=O)c1ccc(Cl)cc1C(=O)NC(C)C [compound 1277] | A (100) | A (100) | A (100)
19 | Cc1cc(C(F)(F)C(F)(F)F)ccc1NC(=O)c1ccc(Cl)cc1C(=O)NC(C)(C)C [compound 1278] | A (100) | A (100) | A (100)
20 | CCN(CC)C(=O)c1cc(Cl)ccc1C(=O)Nc1ccc(C(F)(F)C(F)(F)F)cc1C [compound 1280] | A (100) | A (100) | A (100)

Row | SMILES | Insecticidal effect, Test Example 1 [1] | Insecticidal effect, Test Example 3 [2] | Insecticidal effect, Test Example 2 [3]
21 | Cc1cc(OC(F)(F)F)ccc1NC(=O)c1cc(F)c(F)cc1C(=O)NC(C)C [compound 1287] | A (100) | A (100) | A (100)
22 | Cc1cc(C(F)(F)C(F)(F)F)ccc1NC(=O)c1ccccc1C(=O)NC(C)CO (stereo not drawn) [compound 1294] | A (100) | A (100) | A (100)
23 | COc1ccc(-c2ccccc2)cc1NC(=O)c1c(Cl)cccc1C(=O)NC(C)C [compound 1295] | A (100) | A (100) | A (100)
24 | COc1ccc(-c2ccccc2)cc1NC(=O)c1cccc(Cl)c1C(=O)NC(C)C [compound 1296] | A (100) | A (100) | A (100)
25 | CCCNC(=O)c1cccc(Cl)c1C(=O)Nc1cc(-c2ccccc2)ccc1OC [compound 1297] | A (100) | A (100) | A (100)
26 | Cc1cc(C(F)(F)C(F)(F)F)ccc1NC(=O)c1cccc(Cl)c1C(=O)NC(C)CO (stereo not drawn) [compound 1298] | A (100) | A (100) | A (100)
27 | CCC(CO)NC(=O)c1ccccc1C(=O)Nc1ccc(C(F)(F)C(F)(F)F)cc1C (stereo not drawn) [compound 1299] | A (100) | A (100) | A (100)
28 | Cc1cc(C(F)(F)C(F)(F)F)ccc1NC(=O)c1cccc(I)c1C(=O)NC(C)CO (stereo not drawn) [compound 1300] | A (100) | A (100) | A (100)
29 | CCCNC(=O)c1c(I)cccc1C(=O)Nc1ccc(C(F)(F)C(F)(F)F)cc1C [compound 1303] | A (100) | A (100) | A (100)
30 | Cc1cc(C#CC(C)(C)C)ccc1NC(=O)c1cccc(I)c1C(=O)NC(C)C [compound 1305] | A (100) | A (100) | A (100)
31 | Cc1cc(C(F)(F)C(F)(F)F)ccc1NC(=O)c1cccc(Cl)c1C(=O)NCc1ccccc1 [compound 1307] | A (100) | A (100) | A (100)
32 | Cc1cc(C(F)(F)C(F)(F)F)ccc1NC(=O)c1cccc(Cl)c1C(=O)NCc1ccccc1Cl [compound 1309] | A (100) | A (100) | A (100)
33 | CNC(=O)c1c(I)cccc1C(=O)Nc1ccc(C(F)(F)C(F)(F)F)cc1C [compound 1311] | A (100) | A (100) | A (100)
34 | CCNC(=O)c1c(I)cccc1C(=O)Nc1ccc(C(F)(F)C(F)(F)F)cc1C [compound 1313] | A (100) | A (100) | A (100)
35 | CCNC(=O)c1cccc(I)c1C(=O)Nc1ccc(C(F)(F)C(F)(F)F)cc1C [compound 1314] | A (100) | A (100) | A (100)
36 | Cc1cc(C(F)(F)C(F)(F)F)ccc1NC(=O)c1cccc(Cl)c1C(=O)NCC(C)O (stereo not drawn) [compound 1315] | A (100) | A (100) | A (100)
37 | CCC(CO)NC(=O)c1c(Cl)cccc1C(=O)Nc1ccc(C(F)(F)C(F)(F)F)cc1C (stereo not drawn) [compound 1316] | A (100) | A (100) | A (100)
38 | Cc1cc(C(F)(F)C(F)(F)F)ccc1NC(=O)c1cccc(Cl)c1C(=O)NC(C)(C)CO [compound 1317] | A (100) | A (100) | C (89-80)
39 | Cc1cc(C#N)ccc1NC(=O)c1cccc(Cl)c1C(=O)NC(C)C [compound 1330] | A (100) | A (100) | A (100)

Source: patent US6362369B1, “Phthalic acid diamide derivatives fluorine-containing aniline compounds as starting material, agricultural and horticultural insecticides, and a method for application of the insecticides” (Nihon Nohyaku Co., Ltd., priority 1997, dated 2002)
